# Key:
# Type in all cases: cell-based
# [1] = system: LAP348 lac activator protein: E. coli lacI 5'N1 (SV40 nuclear localization signal) with HSV VP16 amino acids 369-488 inserted after lacI amino acid 348; experiment: Transient cotransfection CAT assay with or without IPTG in the growth medium (FIG. 6); settings: 10 mM IPTG in growth medium; HeLa cells cotransfected with pL1-2CAT and pHCMVLAP348
# Procedure: FIG. 6 Inhibition of LAP activity by IPTG. HeLa cells were plated out two days before transfection in normal media or media containing 10 mM IPTG. Transfections contained 2 μg of either pSV2CAT or pL1-2CAT alone or with 1 μg of pHCMVLAP348. Cells transfected in IPTG were fed with media containing 10 mM IPTG 16 hours after transfection. CAT assays were preformed as described in the text. The relative activities (RA) of each extract normalized to that produced by pSV2CAT are shown below the figure.
# (§1) Cells were transfected by the calcium phosphate precipitation method as previously described (Wigler et al., 1979, Proc. Natl. Acad. Sci. USA 76:1373-1376). For transient expression assays, 50-70% confluent […] of cells were incubated overnight after addition to the media of a 1 ml precipitate containing 2 μg of reporter and 1 μg of effector plasmids and carrier DNA (high molecular weight calf thymus DNA) for a total of 25 μg of DNA. The media and precipitate were removed and replaced with fresh media the next morning.
# (§2) Cells were harvested 44-48 hours after transfection and CAT assays performed essentially as described (Gorman et al., 1982, Mol. Cell Biol. 2:1044-1051). Equal amounts (30-200 μg) of protein were used in each experiment. CAT activity was quantitated by thin layer chromatography and liquid scintillation counting of spots. […]
# [2] = system: LAP348 lac activator protein: E. coli lacI 5'N1 with HSV VP16 amino acids 369-488 inserted after lacI amino acid 348, stably expressed; experiment: CAT assay in cell line stably expressing LAP348, with or without IPTG (FIG. 8); settings: IPTG (10 mM per FIG. 8 legend) added to medium two days before transfection; LAPneo2b cells
# Procedure: FIG. 8 Inhibition of LAP348 activity of L3 cells by IPTG. Either LTK or L3, or L3 cells grown in the presence of 10 mM IPTG (L3+i) for 48 hours before transfection, were transfected with either pSV2cat or pL1-2cat as indicated. The relative activity of the extracts normalized to that produced by SV2cat in Ltk- cells are shown below.
# as §1
# as §2, with “spots. Extracts that converted greater than 80% of the chloramphenicol in an assay were diluted appropriately to ensure linearity of the assay.” for “spots.”
# [3] = system: LAP267 temperature-sensitive lac activator protein: E. coli lacI 5'N1 with HSV VP16 segment inserted after lacI amino acid 267; experiment: CAT expression from pL14CAT as a function of IPTG concentration at 39.5° C. (FIG. 9); settings: 39.5° C. (non-permissive temperature); HeLa cells cotransfected with LAP267 and pL14CAT
# Procedure: FIG. 9 Reverse-regulatory effect of IPTG on transactivator activity of LAP267 at 39.5° C.
# LAP267 was constructed as described for LAP348 in Section 6.1.1., supra, except that the VP16 segment was inserted at an EcoRV site after amino acid 267 in the lacI coding region (FIG. 1A).
# HeLa cells were cotransfected with plasmids encoding the LAP267 or LAP348 activator protein and pL14CAT, encoding CAT reporter gene. […] This property enables the expression of genes controlled by LAP267 to be induced at 39.5° C. by addition of IPTG to the culture medium.
structure (smiles),measurement,setting,value
"CC(C)S[C@@H]1O[C@H](CO)[C@H](O)[C@H](O)[C@H]1O [IPTG, isopropyl β-D-thiogalactoside]",reduction of the level of activation of pL1-2CAT by LAP348,[1],greater than 10 fold
same,reduction of expression of pL1-2CAT in LAP348-expressing cell line,[2],greater than 30 fold
same,effect of IPTG on transactivator activity of LAP267,[3],reverse regulator
